From US20160298165A1 (priority 2013, published 2016)

Columns and labels:
[1] = test system: M. tuberculosis Δsdh1 mutant; type: cell-based; conditions: aerobic, at two and five days
[2] = test system: M. tuberculosis parental, sdh1 and sdh2 mutant strains
[3] = test system: M. tuberculosis H37Rv rpoB H445R; type: cell-based, Mycobacterium tuberculosis
[4] = test system: INH-resistant M. tuberculosis strains (H37Rv inhA S94A, H37Rv PmabAinhA c-15t, H37Rv katG g371del); type: cell-based, Mycobacterium tuberculosis
[5] = test system: M. tuberculosis H37Rv; type: cell-based, Mycobacterium tuberculosis
[6] = test system: M. tuberculosis Δsdh1 or Δsdh2 mutants; type: cell-based; conditions: hypoxic conditions

Q: `CC[C@@H](CO)NCCN[C@@H](CC)CO` [EMB, Ethambutol, reference compound] was tested. Which “clearing of the Δsdh1 mutant by single drugs vs parental” value [1] did it give?
A: Its value is “this was not true”.

Q: For `CN[C@@H]1[C@H](O[C@H]2[C@H](O[C@H]3[C@H](O)[C@@H](O)[C@H](N=C(N)N)[C@@H](O)[C@@H]3N=C(N)N)O[C@@H](C)[C@]2(O)C=O)O[C@@H](CO)[C@H](O)[C@H]1O` [STR], which “clearing of the Δsdh1 mutant by single drugs vs parental” value [1] is on record?
A: Its value is “this was not true”.

Q: Which results are given for `N#CC(C#N)=NNc1cccc(Cl)c1` [CCCP, carbonyl cyanide 3-chlorophenylhydrazone]?
A: time after which culture was unable to be rescued [2]: 22 to 24 days; viable cells at end of experiment [2]: no viable cells remained; parental inoculum remaining viable ([2]; Mycobacterium tuberculosis): 0.1%

Q: With `CCc1cc(C(N)=S)ccn1` [ETH] as the compound, how does the “clearing of the Δsdh1 mutant by single drugs vs parental” value [1] read?
A: Its value is “cleared more rapidly”.

Q: Which “growth of H37Rv rpoB H445R” value [3] does the source give for `N[C@@H](CS)C(=O)O` [cysteine] here?
A: Its value is “grew well”.

Q: And the “growth of INH-resistant strains” value [4]?
A: Its value is “not impaired”.

Q: What about the “Frequency of mutation for INH, Average” value [5] of the same compound?
A: Its value is 7 × 10^−7.

Q: And the “Frequency of mutation for RIF” value [5]?
A: Its value is 2 × 10^−8.

Q: What about the “Frequency of mutation for RIF, Average” value [5] of the same compound?
A: Its value is 2 × 10^−8.

Q: And the “decrease in the frequency of spontaneous INH-resistant mutants” value [5]?
A: The value was ≤ 10 fold.

Q: What about the “decrease in the frequency of spontaneous RIF-resistant mutants” value [5] of the same compound?
A: Its value is 3 fold.

Q: For `NNC(=O)c1ccncc1` [INH, Isoniazid], which “killing of Δsdh1 or Δsdh2 mutants compared to the parental strain” value [6] is on record?
A: The value was “no effect”.

Q: And the “growth of INH-resistant strains” value [4]?
A: Its value is “not impaired”.

Q: And the “clearing of the Δsdh1 mutant by single drugs vs parental” value [1]?
A: The value was “this was not true”.
